# Data from patent US20240269154A1, “CANNABIDIOL FOR USE IN THE TREATMENT OF PAIN RESULTING FROM AN INDOLEAMINE 2,3-DIOXYGENASE-1 (IDO1) RELATED DISEASE” (Assistance Publique - Hopitaux de Paris, priority 2021, published 2024).
# “Also recorded” adds a separate entry of the source.
# Tested on: patients suffering from indolent systemic mastocytosis (ISM) or mast cell activation syndrome (MCAS) or having hypertryptasemia
# Assay: Numeric rating scale (NRS) pain score in 15 patients treated with CBD capsules
# Format: in vivo, human
# Conditions: for reduction of pain / average pain score (NRS): 15 patients; for reduction of pain: NRS; for average pain score (NRS): D0 average about 7.2
# Procedure: Fifteen patients suffering from indolent systemic mastocytosis (ISM) or mast cell activation syndrome (MCAS) or having hypertryptasemia with no positive result from classic treatments were treated with a daily dose from 15 to 400 mg of cannabidiol (CBD) by capsule.
# The pain was measured using numeric rating scale (NRS) pain score, between 0 (no pain) and 10 (worst pain imaginable).
# [1] = after one month of treatment (M1)
# [2] = after three months of treatment (M3)
compound,measurement,setting,value
"C=C(C)[C@@H]1CCC(C)=C[C@H]1c1c(O)cc(CCCCC)cc1O [CBD, cannabidiol]",reduction of pain,M1 versus D0,about 2 points
same,reduction of pain,M3 versus D0,about 3 points
same,average pain score (NRS),[1],5.1
same,average pain score (NRS),[2],3.8
same,relief of pain observed,[1],13 of 15
same,relief of pain observed,[2],14 of 15
same,pain treatment withdrawal,"individual patient, other pain treatment stopped under CBD","stop stelara; also recorded: stop NSAID; also recorded: stop nefopam; also recorded: stop memantine,; also recorded: stop opioids; also recorded: stop methadone,; also recorded: stop methadone; also recorded: stop ketamine; also recorded: stop amitriptyline"
